Results on seven compounds are retold here after US10000484B2, “Inhibitors of the renal outer medullary potassim channel” (MERCK SHARP & DOHME CORP., priority 2013, dated 2018).

SMILES strings stand for the structures.

This assay concerns the target T1, ROMK (Kir1.1) (Homo sapiens, UniProt P48048).
T1 sequence (P48048 1-391): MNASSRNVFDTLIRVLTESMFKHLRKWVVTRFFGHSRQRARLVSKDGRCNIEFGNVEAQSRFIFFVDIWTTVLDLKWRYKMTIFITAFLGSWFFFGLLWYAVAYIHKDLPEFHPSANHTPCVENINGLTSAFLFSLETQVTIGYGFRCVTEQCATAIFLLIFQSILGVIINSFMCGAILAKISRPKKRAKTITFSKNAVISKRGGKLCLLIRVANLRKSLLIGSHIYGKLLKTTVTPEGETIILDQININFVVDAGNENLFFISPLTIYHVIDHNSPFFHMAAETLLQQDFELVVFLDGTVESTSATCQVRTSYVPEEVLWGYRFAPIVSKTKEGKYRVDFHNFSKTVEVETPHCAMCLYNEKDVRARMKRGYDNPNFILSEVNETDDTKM
As to the kind of experiment: 86Rb+ Efflux Assay, described in WO2013/062892 at pages 79-80. The assay is classed as cell-based. The settings on record: values marked "(Rb)" in Table 10. The text has this:
The data for Examples 2, 3, 4, 8, 9, 10, 15 and 32 were obtained using the ^86Rb^+ Efflux Assay, described in WO2013/062892 at pages 79-80.
With `N#Cc1ccc(-n2ncc3c2CCN(CCc2ccc4c(c2)COC4=O)C3)cc1` [Example 3, 4-{5-[2-(1-oxo-1,3-dihydro-2-benzofuran-5-yl)ethyl]-4,5,6,7-tetrahydro-1H-pyrazolo[4,3-c]pyridin-1-yl}benzonitrile], the IC50 (as a rule, the concentration at which inhibition is half-maximal) was found to be 501 nM. Take `Cc1c(CCN2CCc3nc(-c4ccc(C#N)cc4)ncc3C2)ccc2c1COC2=O` [Example 4, 4-{6-[2-(4-methyl-1-oxo-1,3-dihydro-2-benzofuran-5-yl)ethyl]-5,6,7,8-tetrahydropyrido[4,3-d]pyrimidin-2-yl}benzonitrile]: the IC50 worked out at 304 nM. The figure for `Cc1c(CCN2CCc3c(cnn3-c3ccc(-n4cnnn4)cc3)C2)ccc2c1COC2=O` [Example 8, 4-methyl-5-(2-{1-[4-(1H-tetrazol-1-yl)phenyl]-1,4,6,7-tetrahydro-5H-pyrazolo[4,3-c]pyridin-5-yl}ethyl)-2-benzofuran-1(3H)-one] is 380 nM.

In the case of `Cc1c(CCN2CCc3nc(-c4ccc5c(c4)COC5=O)ncc3C2)ccc2c1COC2=O` [Example 9, 4-methyl-5-{2-[2-(1-oxo-1,3-dihydro-2-benzofuran-5-yl)-7,8-dihydropyrido[4,3-d]pyrimidin-6(5H)-yl]ethyl}-2-benzofuran-1(3H)-one], half-maximal inhibition (IC50) was put at 96.1 nM.

In turn, `Cc1c(CCN2CCc3c(cnn3-c3ccc4c(c3)COC4=O)C2)ccc2c1COC2=O` [Example 10, 4-methyl-5-{2-[1-(1-oxo-1,3-dihydro-2-benzofuran-5-yl)-1,4,6,7-tetrahydro-5H-pyrazolo[4,3-c]pyridin-5-yl]ethyl}-2-benzofuran-1(3H)-one] yielded an IC50 of 66 nM. Next, `COc1cc(-c2cn3c(n2)CN(CCc2ccc4c(c2C)COC4=O)CC3)ccc1C#N` [Example 15, 2-methoxy-4-{7-[2-(4-methyl-1-oxo-1,3-dihydro-2-benzofuran-5-yl)ethyl]-5,6,7,8-tetrahydroimidazo[1,2-a]pyrazin-2-yl}benzonitrile]: 197 nM. Next, `Cc1c(C(O)CN2CCc3nc(-c4ccc5c(c4)COC5=O)ncc3C2)ccc2c1COC2=O` (stereo not shown) [Example 32, 5-{1-hydroxy-2-[2-(1-oxo-1,3-dihydro-2-benzofuran-5-yl)-7,8-dihydropyrido[4,3-d]pyrimidin-6(5H)-yl]ethyl}-4-methyl-2-benzofuran-1(3H)-one]: 69.9 nM.
